Source: article PMC4405831, “Mast cell regulation of Na-glutamine co-transporters B0AT1 in villus and SN2 in crypt cells during chronic intestinal inflammation” (BMC Gastroenterology, 2015)

Tested on: T1, B0AT1
T1 construct: gene SLC6A19; native full-length transporter in brush border membrane vesicles from ileal villus cells; not purified
Assay: 3H-glutamine uptake into villus BBMV, rapid filtration, […] s
Assay type: biochemical, Oryctolagus cuniculus
Details: labelled compound; Na-dependent uptake (100 mM NaCl minus choline), pH 7.5, voltage clamped; normal (control) rabbits

Km: 24 ± 1.5 mM
Compound: NC(=O)CC[C@H](N)C(=O)O [glutamine]
